We go through three compounds from US9301945B2, “Methods for treating inflammatory conditions and states, and cancers by antagonizing NF-κB activation” (Emory University, priority 2011, dated 2016).

Assay [1] relates to MC3T3 osteoblast precursors. The assay can be described thus: Osteoblast differentiation / mineralization assay with Alizarin Red-S staining. Conditions: for osteoblast mineralization (calcium deposition, Alizarin Red-S): 200 μM, 17 days of culture, mineralizing medium, no TNFα. It counts as cell-based, mouse. The procedure:
(§1) The mouse preosteoblastic cell line MC3T3-E1, clone 14 (MC3T3) and the mouse monocytic cell line RAW264.7 were purchased from the Amerimay Type Culture Collection (Manassas, Va.) and cultured as described in, for example, Li et al. (2007) J Bone Miner Res 22(5): 646-655; and Yamaguchi et al. (2009) Int J Mol Med 24(5): 671-675.
For mineralization assays MC3T3 cells were plated in 12-well dishes at a density of 1.0×10^5 cells per well in mineralization medium (α-MEM supplemented with 10% FBS, L-ascorbic acid (100 μg/ml) and 4 mM β-glycerophosphate) as previously described in, for example, Li et al. (2007) J Bone Miner Res 22(5): 646-655; and Sugimoto et al. (2000) Int J Mol Med 5(5): 515-520. Strontium ranelate, sodium ranelate or strontium chloride were added at the indicated doses and cells replenished with fresh medium every 3 days. At 17-18 days of culture, cells were rinsed with PBS and calcium deposition was visualized by fixing the cells in 75% ethanol for 30 minutes at 4° C. followed by staining with Alizarin Red-S (40 mM, pH 6.2) for 30 minutes at room temperature. Excess stain was removed by copious washing with distilled water. Plates were imaged using a flatbed smayner (Epson Perfection 1660 Photo).
The mechanism by which strontium ranelate promotes osteoblast differentiation was investigated using an in vitro model. The in-vitro model used to investigate utilizes the MC3T3 mouse pre-osteoblast cell line that differentiates spontaneously into active osteoblasts within 21 days of culture in medium containing ascorbic acid and β-glycerophosphate (mineralizing medium).

Assay [2] concerns TNFα-induced NF-κB activation in MC3T3 osteoblast precursors. The assay can be described thus: NF-κB luciferase reporter assay in MC3T3 cells stimulated with TNFα. The class given is cell-based, mouse. Conditions: 24 h. The source says: (§2) The NF-κB responsive reporter pNF-κB-Luc (BD Biosciences) and the Smad responsive reporter pGL3-Smad were used as previously described by in, for example, Li et al. (2007) J Bone Miner Res 22(5): 646-65. Briefly, reporter plasmids were transfected into MC3T3 or RAW264.7 cells (1×10^5 cells/well) using Lipofectamine 2000 reagent (Invitrogen) in α-MEM without FBS and antibiotics. Five hours later the medium was changed to α-MEM containing 10% FBS plus antibiotics and MC3T3 cells treated with TNFα (1 or 10 ng/ml as indicated) or RAW264.7 cells treated with RANKL (30 ng/ml) to stimulate NF-κB activity. In some experiments, Smad activity was induced in MC3T3 cells using TGFβ (1 ng/ml). Strontium ranelate, sodium ranelate or strontium chloride were added at the indicated doses. Cells were extracted with passive lysis buffer (Promega Corporation, Madison Wis.) 24 hours later, and luciferase activity was measured using the Luciferase Assay System of Promega, on a microplate luminometer (Turner Designs, Sunnyvale, Calif., USA).
A major mechanism by which TNFα mediates its suppressive action on osteoblasts is through NF-κB activation. See Li et al. (2007) J Bone Miner Res 22(5): 646-655; and Nanes (2003) Gene 321: 1-15.
On the technique in general: A reporter such as luciferase makes a cellular process visible.

Assay [3] has as its system TGFβ-induced Smad activation in MC3T3 cells. Briefly: Smad luciferase reporter assay in MC3T3 cells (TGFβ with or without TNFα). The conditions noted are these: 24 h; for direct effect on basal Smad activity: 500 μM; for effect on TNFα suppression of TGFβ-induced Smad activity: TGFβ 1 ng/ml, TNFα 1 ng/ml, concentrations of 100 μM and above. The class given is cell-based, mouse.
Source text: as §2
TGFβ is a potent early osteoblast precursor commitment and recruitment factor. See, e.g., See Janssens et al. (2005) Endocr Rev 26(6): 743-774; and Tang et al. (2009) Nat Med 15(7): 757-765. It has been reported that TNFα antagonizes TGFβ-induced Smad signaling in osteoblast precursors (see, e.g., Li et al. (2007) J Bone Miner Res 22(5): 646-655) and consequently investigated whether strontium ranelate may alleviate TNFα-induced suppression of TGFβ-induced Smad signaling in preosteoblasts. MC3T3 cells were transiently transfected with a Smad responsive luciferase reporter and Smad-induced transcription quantitated following stimulation by TGFβ.

In assay [4] the test system is RAW264.7 osteoclast precursors. The assay can be described thus: Osteoclastogenesis assay with TRAP staining. It counts as cell-based, mouse. The conditions noted are these: RANKL 30 ng/ml, 7 days. The procedure:
as §1
RAW264.7 cells were cultured in 96-well plates in α-MEM supplemented with 10% FBS and 100 IU/ml penicillin, and 100 μg/ml streptomycin at a density of 1×10^4 cells/well. Cells were cultured for 6 days with RANKL ([…]) pre-incubated for 10 minutes with crosslinking anti-poly-histidine antibody (2.5 μg/ml), to induce osteoclast formation. Strontium ranelate, sodium ranelate or strontium chloride were added at the indicated doses. After 6 days of culture, the cells were fixed and stained for TRAP, a specific maker of the osteoclast phenotype, using a leukocyte acid phosphatase kit. TRAP+ cells with three or more nuclei were defined as osteoclasts and were quantitated under light microscopy, and normalized for cell size based on number of nuclei. Five wells per group were averaged. Representative wells were photographed under bright field microscopy using a Nikon Eclipse TE2000-S inverted microscope equipped with a digital camera (QImaging Corp., Burnaby, BC, Mayada).
To establish an in vitro osteoclastogenesis model suitable for investigation of strontium ranelate activity, the monocytic cell line RAW 264.7 was employed and differentiated into osteoclasts by addition of the key osteoclastogenic cytokine RANKL was induced. The effect of strontium ranelate on osteoclast differentiation was tested over a dose range from 1 μM to 200 μM and cultures were stained with TRAP 7 days later and osteoclast formation quantitated.

In assay [5] the test system is RANKL-induced NF-κB activation in RAW264.7 osteoclast precursors. The assay can be described thus: NF-κB luciferase reporter assay in RAW264.7 cells stimulated with RANKL. The class given is cell-based, mouse. The conditions noted are these: RANKL 30 ng/ml, dose range 1 to 1000 μM, 24 h.
Source text: as §2
See Caudrillier et al. (2010) Mol Pharmacol 78(4):569-576.

Assay [6] concerns NF-κB nuclear translocation. The conditions noted are these: reported by Caudrillier et al. (2010); cited from earlier work.
The test system of assay [7] is postmenopausal women. The conditions noted are these: clinical trials; cited from earlier work.
[8] abbreviates: in vitro osteoblast differentiation and mineralization assays.

“Also recorded” adds a separate entry of the source.

`N#Cc1c(N(CC(=O)[O-])CC(=O)[O-])sc(C(=O)[O-])c1CC(=O)[O-].[Na+].[Na+].[Na+].[Na+]` [sodium ranelate]: in assay [1], the “osteoblast mineralization (calcium deposition, Alizarin Red-S)” value is “no stimulatory effects on osteoblast mineralization”. The “TNFα-induced NF-κB activity (luciferase)” value in assay [2] (TNFα 1 ng/ml, 200 μM) is recorded as “completely ineffective”. For the same compound, in assay [3], the “direct effect on basal Smad activity” value is given as “no direct effect on basal Smad activity” and the “effect on TNFα suppression of TGFβ-induced Smad activity” value is recorded as “significantly relieved the suppressive effect of TNFα on TGFβ-induced Smad activity”. Also, the “RANKL-induced osteoclast formation (TRAP+ multinucleated cells)” value (“RANKL-induced osteoclast formation” below) in assay [4] (10 or 100 μM) is “neither strontium chloride nor sodium ranelate had any effect on osteoclast formation”.
For the compound `[Cl-].[Cl-].[Sr+2]` [strontium chloride], in assay [1], the “osteoblast mineralization (calcium deposition, Alizarin Red-S)” value was “no stimulatory effects on osteoblast mineralization”. Moreover, in assay [2] (TNFα 1 ng/ml, 200 μM), the “TNFα-induced NF-κB activity (luciferase)” value is on record as “completely ineffective”. In addition, the “RANKL-induced osteoclast formation” value in assay [4] (10 or 100 μM) is “neither strontium chloride nor sodium ranelate had any effect on osteoclast formation”. In assay [5], the “RANKL-induced NF-κB activity (luciferase)” value is “no significant effect; also recorded: failed to suppress NF-κB activity”.
For the compound `N#Cc1c(N(CC(=O)[O-])CC(=O)[O-])sc(C(=O)[O-])c1CC(=O)[O-].[Sr+2].[Sr+2]` [strontium ranelate, distrontium salt of 2-[N,N-di(carboxymethyl)amino]-3-cyano-4-carboxymethylthiophene-5-carboxylic acid], the “osteoblast mineralization (calcium deposition, Alizarin Red-S)” value in assay [1] is recorded as “promote a robust osteoblast mineralization; also recorded: robust enhancement in mineralization”. In addition, the “effect on TNFα suppression of basal mineralization” value in assay [1] (TNFα 5 ng/ml, 10 μM) was “completely reversed the suppressive effect of TNFα on basal mineralization”. The “mineralization relative to basal levels in presence of TNFα” value in assay [1] (TNFα 5 ng/ml, 100 and 200 μM) is listed as “potently augmented mineralization over basal levels”. Moreover, the “lowest dose achieving significant biological activities” value in assay [1] (setting [8]) is 1 μM. In assay [1] (setting [8]), the saturating dose was 100 µM. Also, the “TNFα-induced NF-κB activity (luciferase)” value is on record as “significantly suppressed TNFα-induced NF-κB activity” in assay [2] (TNFα 1 ng/ml, 200 μM); “dose dependently suppressed TNFα-induced NF-κB activity” in assay [2] (high TNFα 10 ng/ml, dose range 1 to 1000 μM); “dose dependently suppressed TNFα-induced NF-κB activity” in assay [2] (low TNFα 1 ng/ml, dose range 1 to 1000 μM). The “direct effect on basal Smad activity” value in assay [3] was “no direct effects on Smad activity”. In addition, the “effect on TNFα suppression of TGFβ-induced Smad activity” value in assay [3] is listed as “significantly alleviates the suppressive effect of TNFα on TGFβ-induced Smad activation”. Besides, the “RANKL-induced osteoclast formation” value in assay [4] (1 μM) is “significantly suppressed”; in assay [4] (10 or 100 μM), “potently suppresses osteoclast formation at both doses”. Besides, the “RANKL-induced NF-κB activity (luciferase)” value is “potently antagonize RANKL-induced NF-κB activation” in assay [5]; “dose-dependently and significantly blunted RANKL-induced NF-κB activity” in assay [5] (listed as Strontium ranelate). In addition, in assay [6], the “RANKL-induced NF-κB nuclear translocation” value is “antagonize RANKL-induced NF-κB nuclear translocation”. Besides, the bone loss result in assay [7] is listed as “protect against bone loss”. Further, in assay [7], the fracture risk entry is “reduce fracture risk”.
